# Article PMC10150365 (Journal of Medicinal Chemistry, 2023)
# “And” between values parts separate entries of the source, which are not always exact repeats. Equal values may be shown once. Read-outs that look alike come from different tables or passages of the source. Marks after values point to notes of the source that are not given here.
# Experiments:
# [1] = physchem; conditions: pH 7.4
# [2] = physchem; conditions: pH 7.4; remark: listed apart in the source
# [3] = test system: SK-OV-3; assay: cells; assay type: cell-based, human
# [4] = in vitro; assay type: in vitro ADME, mouse; conditions: male, CD1, mouse, microsomes, pH 7.4; n = 1, fraction unbound assumed 1; read-out: Microsome Clint, mouse (MLM)
# [5] = in vitro; assay type: in vitro ADME; conditions: both sexes, human, microsomes, pH 7.4; n = 1, fraction unbound assumed 1; read-out: Microsome Clint, human (HLM)
# [6] = in vitro; assay type: in vitro ADME; conditions: male, Sprague Dawley, rat, microsomes, pH 7.4; n = 1, fraction unbound assumed 1; read-out: Microsome Clint, rat (RLM)
# [7] = test system: P-gp; assay: iv PK in CF1 wild-type and P-gp-knockout mice; assay type: in vivo, mouse; conditions: 5 mg/kg iv, 90% CI
# [8] = iv PK in CF1 wild-type and P-gp-knockout mice; assay type: in vivo, mouse; conditions: mouse, whole blood, iv, 5 mg/kg, read-out: Vss
# [9] = Plasma protein binding and blood-to-plasma ratio; conditions: for fub: BALB/c mouse blood, fub = fup/B:P; for Plasma, fup: BALB/c mouse, 90% CI
# [10] = Mouse blood PK (BALB/c); conditions: for iv Cltb / Free Cav^0–24h / CLu / Vdu / AUC / Fmax: BALB/c mice; for iv Cltb: iv 5 mg/kg (18: 1 mg/kg); for Free Cav^0–24h: AUC^inf/24*fub; for CLu: CLtb/fub; for Vdu: Vss/fub; for Vd / half-life at 24 h: iv
# [11] = in vitro; assay type: in vitro ADME; conditions: mouse; for hepatocyte CLint at 1 h, 1 µM: hepatocytes, n = 1, read-out: Mouse Heps CLint; for Pred. in vivo CLu from Heps: fraction unbound in assay assumed 0.4 or 0.2
# [12] = Free fraction in CellTiter-Blue assay medium (dialysis); assay type: in vitro ADME; conditions: dialysis from CellTiter-Blue assay medium; 90% CI
# [13] = physchem
# [14] = for FaSSGF Concentration, replicates 1-3: pH 1.6, individual replicates; for FaSSIF Concentration, replicates 1-3 / FeSSIF Concentration, replicates 1-3: pH 6.5, individual replicates
# [15] = Homo sapiens, SK-OV-3, 96 h; read-out: SK-OV-3 pGI50 ± SEM (n) (converted)
# [16] = Homo sapiens, SK-OV-3; 96 h, CellTiter-Blue, geometric mean; read-out: SK-OV-3 GI50
# [17] = female, BALB/c, mouse, in vivo, po, 5 mg/kg
# [18] = female, BALB/c, mouse, in vivo, po, 5 mg/kg, AUCu^0–6h, AUC*fub
# [19] = female, BALB/c, mouse, in vivo, po, 5 mg/kg, po AUC^0–6h, po 5 mg/kg, 90% CI
# [20] = female, BALB/c, mouse, whole blood, po, 5 mg/kg
# [21] = pH 1.6, Thermodynamic solubility FaSSGF (mean), pH 1.6, 37 °C, 1 mg/mL (top limit of assay)
# [22] = pH 6.5, Thermodynamic solubility FaSSIF (mean), pH 6.5, 37 °C, 1 mg/mL
smiles,measurement,setting,value
"Cc1ccc(NC(=O)c2ccc3c(c2)OCCO3)cc1NC(=O)c1ccc2nc(CN3CCCC3C)ccc2c1 (racemic) [Compound 13, Racemic-N-(5-(2,3-Dihydrobenzo[b][1,4]dioxine-6-carboxamido)-2-methylphenyl)-2-((2-methylpyrrolidin-1-yl)methyl)quinoline-6-carboxamide]",chromatographic logD,[1],2.3
same,"solubility kinetic at 2 h, 100 µM",[2],50 µM
same,GI50,[3]; [15],7.08 nM
same,GI50,[3]; [16],7.1 nM
"Cc1ccc(NC(=O)c2ccc3c(c2)OCCO3)cc1NC(=O)c1ccc2nc(CN3CCCC3)ccc2c1 [Compound 11, N-(5-(2,3-Dihydrobenzo[b][1,4]dioxine-6-carboxamido)-2-methylphenyl)-2-(pyrrolidin-1-ylmethyl)quinoline-6-carboxamide]",chromatographic logD,[1],1.9
same,"solubility kinetic at 2 h, 100 µM",[2],40 µM
same,microsomal CLint,[4],21 µL/min/mg
same,GI50,[3]; [15],6.17 nM
same,GI50,[3]; [16],6.2 nM
same,"microsomal CLint at 0.75 h, 1 µM",[5],23 µL/min/mg
same,"microsomal CLint at 0.75 h, 1 µM",[6],20 µL/min/mg
"Cc1ccc(NC(=O)c2ccc3c(c2)OCCO3)cc1NC(=O)c1ccc2nc(CN(C)C)ccc2c1 [Compound 12, N-(5-(2,3-Dihydrobenzo[b][1,4]dioxine-6-carboxamido)-2-methylphenyl)-2-((dimethylamino)methyl)quinoline-6-carboxamide]",chromatographic logD,[1],1.4
same,"solubility kinetic at 2 h, 100 µM",[2],50 µM
same,GI50,[3]; [15],11.7 nM
same,GI50,[3]; [16],12 nM
"Cc1ccc(NC(=O)c2ccc3c(c2)OCCO3)cc1NC(=O)c1ccc2nc(CN3CCCCC3)ccc2c1 [Compound 14, N-(5-(2,3-Dihydrobenzo[b][1,4]dioxine-6-carboxamido)-2-methylphenyl)-2-(piperidin-1-ylmethyl)quinoline-6-carboxamide]","solubility kinetic at 2 h, 100 µM",[2],2 µM
same,GI50,[3]; [15],21.9 nM
same,GI50,[3]; [16],73 nM
"Cc1ccc(NC(=O)c2ccc3c(c2)OCCO3)cc1NC(=O)c1ccc2nc(CN3CCN(C)CC3)ccc2c1 [Compound 15, N-(5-(2,3-Dihydrobenzo[b][1,4]dioxine-6-carboxamido)-2-methylphenyl)-2-((4-methylpiperazin-1-yl)methyl)quinoline-6-carboxamide]",chromatographic logD,[1],1.6
same,"solubility kinetic at 2 h, 100 µM",[2],80 µM
same,microsomal CLint,[4],21 µL/min/mg
same,GI50,[3]; [15],9.55 nM
same,GI50,[3]; [16],9.5 nM
same,microsomal CLint,[5],33 µL/min/mg
same,microsomal CLint,[6],33 µL/min/mg
"Cc1ccc(NC(=O)c2ccc3c(c2)OCCO3)cc1NC(=O)c1ccc2nc(OCCN3CCCCC3)ccc2c1 [Compound 17, N-(5-(2,3-Dihydrobenzo[b][1,4]dioxine-6-carboxamido)-2-methylphenyl)-2-(2-(piperidin-1-yl)ethoxy)quinoline-6-carboxamide]",Cltb,[7]; CF1^PGP-KO mice,38 (43-37) mL/min/kg
same,Cltb,[7]; CF1^WT mice,47 (62-35) mL/min/kg
same,Vd,"[8]; CF1 mdr1a P-gp deficient (CF1-Abcb1amds), CF1^PGP-KO mice",3.6 L/kg
same,Vd,"[8]; CF1 wild type, CF1^WT mice",4.7 L/kg
same,fub,[9],0.015
same,"Plasma, fup",[9],0.022 (0.027-0.017)
same,GI50,"[3]; Homo sapiens, SK-OV-3, 96 h, read-out: SK-OV-3 GI50",1.1 nM
same,GI50,"[3]; Homo sapiens, SK-OV-3, 96 h, read-out: SK-OV-3 pGI50 ± SEM (n) (converted)",1.07 nM
same,iv Cltb,[10]; 90% CI,40 (48–32) mL/min/kg
same,Free Cav^0–24h,[10]; po,0.83 nM
same,CLu,[10],2700 mL/min/kg
same,Vdu,[10],340 L/kg
same,Tmax at 24 h,[10]; [17],2.3 h
same,bioavailability at 24 h,[10]; [17],24%
same,AUC,[10]; [18],0.012 µM·h
same,AUC,[10]; [19],0.83 µM·h
same,Vd,"[10]; female, BALB/c, mouse, whole blood",5.1 L/kg
same,Cmax,[10]; [20],180 nM
same,Tmax,[10]; [20],2 h
"CC(C)N1CCN(Cc2ccc3cc(C(=O)Nc4cc(NC(=O)c5ccc6c(c5)OCCO6)ccc4Cl)ccc3n2)CC1 [Compound 18, N-(2-Chloro-5-(2,3-dihydrobenzo[b][1,4]dioxine-6-carboxamido)phenyl)-2-((4-isopropylpiperazin-1-yl)methyl)quinoline-6-carboxamide]",chromatographic logD,[1],2.3
same,"hepatocyte CLint at 1 h, 1 µM",[11],28 µL/min/1e6 cells
same,Pred. in vivo CLu from Heps,[11],930 ^i mL/min/kg
same,"solubility kinetic at 2 h, 100 µM",[2],70 µM
same,"Assay medium, fua",[12],0.16 (0.18-0.15)
same,fub,[9],0.011
same,"Plasma, fup",[9],0.012 (0.014-0.010)
same,GI50,[3]; [15],14.8 nM
same,GI50,[3]; [16],15 nM
same,Fmax,[10],63%
same,iv Cltb,[10]; 90% CI,33 (35–31) mL/min/kg
same,Free Cav^0–24h,[10]; po,1.6 nM
same,CLu,[10],3000 mL/min/kg
same,Vdu,[10],450 L/kg
same,Vd,"[10]; female, BALB/c, mouse, in vivo",4.9 L/kg
same,half-life at 24 h,"[10]; female, BALB/c, mouse, in vivo, 1 mg/kg",2 h
same,Cmax,[10]; [17],550 nM
same,Tmax at 24 h,[10]; [17],1.7 h
same,bioavailability at 24 h,[10]; [17],63%
same,AUC,[10]; [18],0.026 µM·h
same,AUC,[10]; [19],2.4 µM·h
"O=C(Nc1ccc(Cl)c(NC(=O)c2ccc3nc(CN4CCNCC4)ccc3c2)c1)c1ccc2c(c1)OCCO2 [Compound 19, N-(2-Chloro-5-(2,3-dihydrobenzo[b][1,4]dioxine-6-carboxamido)phenyl)-2-(piperazin-1-ylmethyl)quinoline-6-carboxamide]",GI50,[3]; [15],11.5 nM
same,GI50,[3]; [16],12 nM
"CN1CCN(Cc2ccc3cc(C(=O)Nc4cc(NC(=O)c5ccc6c(c5)OCCO6)ccc4Cl)ccc3n2)CC1 [Compound 20, N-(2-Chloro-5-(2,3-dihydrobenzo[b][1,4]dioxine-6-carboxamido)phenyl)-2-((4-methylpiperazin-1-yl)methyl)quinoline-6-carboxamide]",chromatographic logD,[1],2.1
same,"solubility kinetic at 2 h, 100 µM",[2],30 µM
same,GI50,[3]; [15],19.1 nM
same,GI50,[3]; [16],19 nM
"CCN1CCN(Cc2ccc3cc(C(=O)Nc4cc(NC(=O)c5ccc6c(c5)OCCO6)ccc4Cl)ccc3n2)CC1 [Compound 21, N-(2-Chloro-5-(2,3-dihydrobenzo[b][1,4]dioxine-6-carboxamido)phenyl)-2-((4-ethylpiperazin-1-yl)methyl)quinoline-6-carboxamide]",chromatographic logD,[1],2.2
same,"hepatocyte CLint at 1 h, 1 µM",[11],71 µL/min/1e6 cells
same,Pred. in vivo CLu from Heps,[11],1400 ^i mL/min/kg
same,"solubility kinetic at 2 h, 100 µM",[2],50 µM
same,"Assay medium, fua",[12],0.15 (0.15-0.14)
same,fub,[9],0.0053
same,"Plasma, fup",[9],0.013 (0.015-0.011)
same,GI50,[3]; [15],11 nM
same,GI50,[3]; [16],11 nM
same,Fmax,[10],69%
same,Free Cav^0–24h,[10]; po,1.3 nM
same,CLu,[10],5300 mL/min/kg
same,Vdu,[10],1100 L/kg
same,bioavailability,"[10]; female, BALB/c, mouse, in vivo",100%
same,Vd,"[10]; female, BALB/c, mouse, in vivo",5.7 L/kg
same,half-life at 24 h,"[10]; female, BALB/c, mouse, in vivo, 5 mg/kg",2.3 h
same,Cmax,[10]; [17],880 nM
same,Tmax at 24 h,[10]; [17],1.7 h
same,bioavailability,[10]; [17],96%
same,AUC,[10]; [18],0.02 µM·h
same,AUC,[10]; [19],3.9 µM·h
O=c1[nH]c2ccccc2n1C1CCN(CCCC(c2ccc(F)cc2)c2ccc(F)cc2)CC1 [Pimozide],solubility thermodynamic,[13]; [21],90 µg/mL
same,solubility thermodynamic,[13]; [22],4 µg/mL
same,"FaSSGF Concentration, replicates 1-3",[14],0.087 mg/mL and 0.092 mg/mL and 0.090 mg/mL
same,"FaSSIF Concentration, replicates 1-3",[14],0.004 mg/mL and 0.003 mg/mL
same,"FeSSIF Concentration, replicates 1-3",[14],0.018 mg/mL and 0.008 mg/mL and 0.007 mg/mL
CC(C)NCC(O)COc1cccc2ccccc12 (stereo not drawn) [Propranolol],solubility thermodynamic,[13]; [21],1110 µg/mL
same,solubility thermodynamic,[13]; [22],944 µg/mL
same,"FaSSGF Concentration, replicates 1-3",[14],1.246 mg/mL and 1.094 mg/mL and 1.002 mg/mL
same,"FaSSIF Concentration, replicates 1-3",[14],0.853 mg/mL and 1.047 mg/mL and 0.931 mg/mL
same,"FeSSIF Concentration, replicates 1-3",[14],1.669 mg/mL and 1.812 mg/mL and 1.465 mg/mL
